Assay results from article PMC10373739, “The AKT inhibitor, MK-2206, attenuates ABCG2-mediated drug resistance in lung and colon cancer cells” (Frontiers in Pharmacology, 2023).

Target: T1, ABCG2 transporter (Homo sapiens, UniProt Q9UNQ0)
T1 sequence (Q9UNQ0 1-655): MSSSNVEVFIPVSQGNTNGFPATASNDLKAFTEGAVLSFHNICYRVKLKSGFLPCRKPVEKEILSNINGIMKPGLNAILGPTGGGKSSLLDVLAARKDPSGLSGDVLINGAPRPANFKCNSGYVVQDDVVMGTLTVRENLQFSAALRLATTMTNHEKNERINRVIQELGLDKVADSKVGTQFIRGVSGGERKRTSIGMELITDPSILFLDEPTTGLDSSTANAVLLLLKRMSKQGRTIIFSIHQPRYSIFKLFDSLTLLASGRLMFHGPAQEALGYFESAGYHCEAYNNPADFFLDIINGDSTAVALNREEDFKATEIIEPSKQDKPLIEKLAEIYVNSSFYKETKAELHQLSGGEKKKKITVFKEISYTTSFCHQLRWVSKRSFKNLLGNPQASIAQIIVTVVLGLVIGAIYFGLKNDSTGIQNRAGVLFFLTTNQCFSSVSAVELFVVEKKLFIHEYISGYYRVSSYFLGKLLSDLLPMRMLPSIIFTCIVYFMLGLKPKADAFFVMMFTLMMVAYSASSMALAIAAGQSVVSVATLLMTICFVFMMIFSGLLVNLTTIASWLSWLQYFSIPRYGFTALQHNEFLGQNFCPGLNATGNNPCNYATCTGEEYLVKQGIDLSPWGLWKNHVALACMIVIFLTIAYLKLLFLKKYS
Assay: vanadate-sensitive ATPase assay (stimulation of basal activity) in ABCG2 membrane vesicles from High Five insect cells
Format: biochemical

EC50: 460 nM
SMILES: NC1(c2ccc(-c3nc4ccn5c(=O)[nH]nc5c4cc3-c3ccccc3)cc2)CCC1 [MK-2206]
